Reference: patent US5200409A, “Composition and use of substituted 1,3-dithiolo-and 1,4-dithiinoquinoxalines as an antimicrobial” (The Dow Chemical Company, priority 1992, dated 1993)
≈ marks a conversion by molar mass, not a printed value. Where two headings read alike, the source gives them in different places.

Legend:
Bacillus subtilis (Bs) = test: Minimum inhibitory concentration (MIC) in nutrient agar; format: cell-based, Bacillus subtilis ATCC 8473; conditions: 48 h
How it was run: (§1)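 Nutrient agar, pH 6.8 and 8.2; compound incorporated at 48° C, final 1.0–500 ppm; plates dried 24 h; Steer's replicator inoculum 10^8 CFU/ml from 24 h broth cultures (30° C, shaken); incubation 30° C, 48 h; endpoint = prevention of growth.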

[1] = system: Enterobacter aerogenes (Ea); test: as above; format: cell-based, Enterobacter aerogenes ATCC 13048; conditions: Klebsiella aerogenes, 48 h
How it was run: as §1

Escherichia coli (Ec) = test: as above; format: cell-based, Escherichia coli ATCC 11229; conditions: 48 h
How it was run: as §1

[2] = system: Klebsiella pneumoniae (Kp); test: as above; format: cell-based, Klebsiella pneumoniae ATCC 8308
How it was run: as §1

Proteus vulgaris (Pv) = test: as above; format: cell-based, Proteus vulgaris ATCC 881; conditions: 48 h
How it was run: as §1

[3] = system: Pseudomonas aeruginosa (PRD-10); test: as above; format: cell-based, Pseudomonas aeruginosa ATCC 15442; conditions: 48 h
How it was run: as §1

[4] = system: Pseudomonas aeruginosa (Pa); test: as above; format: cell-based, Pseudomonas aeruginosa ATCC 10145; conditions: 48 hours
How it was run: as §1

[5] = system: Salmonella choleraesuis (Sc); test: as above; format: cell-based, Salmonella choleraesuis ATCC 10708; conditions: Salmonella enterica, 48 h
How it was run: as §1

[6] = system: Staphylococcus aureus (Sa); test: as above; format: cell-based, Staphylococcus aureus ATCC 6538
How it was run: as §1

Aspergillus niger (An) = test: Minimum inhibitory concentration (MIC) in malt yeast agar; format: cell-based, Aspergillus niger ATCC 16404; conditions: malt yeast agar; 30° C.; 72 hours for fungi; read-out: Minimum Inhibitory Concentration, An
How it was run: (§2)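 Steps: compound added to malt yeast agar at 48° C (500–1.0 ppm, plus untreated control); plates poured and dried 24 h; inoculated by replicator with diluted suspensions from 7-day slants; incubated 30° C, read at 72 h.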

Candida albicans (Ca) = test: as above; format: cell-based, Candida albicans ATCC 10231; conditions: malt yeast agar; 30° C.; 48 hours for yeast; read-out: Minimum Inhibitory Concentration, Ca
How it was run: (§3)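 Compound dispersed in malt yeast agar at final 500, 250, 100, 50, 25, 10, 5, 2.5, 1.0 and 0 ppm (from 1% acetone/water solution); plates dried 24 h, then inoculated with saline/octylphenoxy polyethoxy ethanol suspensions of 7-day cultures diluted 1:9. Incubated at 30° C; read at 48 h for yeast, 72 h for fungi.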

[7] = system: Penicillium chrysogenum (Pc); test: as above; format: cell-based, Penicillium chrysogenum ATCC 9480; conditions: malt yeast agar; 30° C.; 72 hours for fungi; read-out: Minimum Inhibitory Concentration, Pc
How it was run: as §2

[8] = system: Saccharomyces cerevisiae (Sc); test: as above; format: cell-based, Saccharomyces cerevisiae ATCC 4105; conditions: malt yeast agar, 30° C., 48 hours for yeast, read-out: Minimum Inhibitory Concentration, Sc
How it was run: as §3

Trichoderma viride (Tv) = test: as above; format: cell-based, Trichoderma viride ATCC 8678; conditions: malt yeast agar; 30° C.; 72 hours for fungi; read-out: Minimum Inhibitory Concentration, Tv
How it was run: as §2

[9] = system: Aureobasidium pullulan (Ap); test: as above; format: cell-based, Aureobasidium pullulan ATCC 16622; conditions: malt yeast agar; 30° C.; 48 hours for yeast and 72 hours for fungi; read-out: Minimum Inhibitory Concentration, Ap
How it was run: as §2

Fusarium oxysporum (Fo) = test: as above; format: cell-based, Fusarium oxysporum ATCC 48112; conditions: malt yeast agar; 30° C.; 72 hours for fungi; read-out: Minimum Inhibitory Concentration, Fo
How it was run: as §2

Question: For `N#CC(C#N)=C1Sc2nc3ccc(C(=O)c4ccccc4)cc3nc2S1` [W, 6-benzoyl-1,3-dithiolo-(4,5-b)-quinoxaline-2-ylidene-propanedinitrile], which MIC (Bacillus subtilis (Bs); pH 6.8, read-out: Minimum Inhibitory Concentration, Bs) is on record?
Answer: The MIC was over 500 µg/mL.

Question: And the MIC (Bacillus subtilis (Bs); pH 8.2, read-out: Minimum Inhibitory Concentration, Bs)?
Answer: Its MIC is over 500 µg/mL.

Question: What about the MIC ([1]; pH 6.8, read-out: Minimum Inhibitory Concentration, Ea) of the same compound?
Answer: The MIC was over 500 µg/mL.

Question: And the MIC ([1]; pH 8.2, read-out: Minimum Inhibitory Concentration, Ea)?
Answer: The MIC was over 500 µg/mL.

Question: And the MIC (Escherichia coli (Ec); pH 6.8, read-out: Minimum Inhibitory Concentration, Ec)?
Answer: The MIC was over 500 µg/mL.

Question: And the MIC (Escherichia coli (Ec); pH 8.2, read-out: Minimum Inhibitory Concentration, Ec)?
Answer: Its MIC is over 500 µg/mL.

Question: And the MIC ([2]; 48 h, pH 8.2, read-out: Minimum Inhibitory Concentration, Kp)?
Answer: Its MIC is over 500 µg/mL.

Question: What about the MIC ([2]; pH 6.8, nutrient agar, 30° C., 48 hours, read-out: Minimum Inhibitory Concentration, Kp) of the same compound?
Answer: The MIC was over 500 µg/mL.

Question: What about the MIC (Proteus vulgaris (Pv); pH 6.8, read-out: Minimum Inhibitory Concentration, Pv) of the same compound?
Answer: The MIC was over 500 µg/mL.

Question: And the MIC (Proteus vulgaris (Pv); pH 8.2, read-out: Minimum Inhibitory Concentration, Pv)?
Answer: Its MIC is over 500 µg/mL.

Question: And the MIC ([3]; pH 6.8, read-out: Minimum Inhibitory Concentration, PRD)?
Answer: Its MIC is over 500 µg/mL.

Question: What about the MIC ([3]; pH 8.2, read-out: Minimum Inhibitory Concentration, PRD) of the same compound?
Answer: Its MIC is over 500 µg/mL.

Question: What about the MIC ([4]; pH 6.8, 30° C.) of the same compound?
Answer: Its MIC is over 500 µg/mL.

Question: What about the MIC ([4]; pH 8.2, 30° C.) of the same compound?
Answer: The MIC was over 500 µg/mL.

Question: What about the MIC ([5]; pH 6.8, read-out: Minimum Inhibitory Concentration, Sc) of the same compound?
Answer: Its MIC is over 500 µg/mL.

Question: What about the MIC ([5]; pH 8.2, read-out: Minimum Inhibitory Concentration, Sc) of the same compound?
Answer: Its MIC is over 500 µg/mL.

Question: What about the MIC ([6]; 48 h, pH 8.2, read-out: Minimum Inhibitory Concentration, Sa) of the same compound?
Answer: The MIC was over 500 µg/mL.

Question: What about the MIC ([6]; pH 6.8, nutrient agar, 30° C., 48 hours, read-out: Minimum Inhibitory Concentration, Sa) of the same compound?
Answer: The MIC was over 500 µg/mL.

Question: And the MIC (Aspergillus niger (An))?
Answer: Its MIC is over 500 µg/mL.

Question: And the MIC (Candida albicans (Ca))?
Answer: The MIC was over 500 µg/mL.

Question: And the MIC [7]?
Answer: Its MIC is over 500 µg/mL.

Question: What about the MIC [8] of the same compound?
Answer: The MIC was over 500 µg/mL.

Question: And the MIC (Trichoderma viride (Tv))?
Answer: The MIC was over 500 µg/mL.

Question: And the MIC [9]?
Answer: The MIC was 500 µg/mL (≈ 1340 µM).

Question: And the MIC (Fusarium oxysporum (Fo))?
Answer: Its MIC is over 500 µg/mL.
